We go through one molecule from US20030153585A1, “Pharmaceutical preparations containing 2-pyrrolidone as the dissolving intermediary” (priority 2000, published 2003).

≈ marks a conversion by molar mass, not a printed value.

The term solubility denotes the concentration that dissolves in the medium under given conditions. The low end stands for little dissolved substance, the high end for much dissolved substance.

This data set is described as follows: physchem. As to conditions: water.

With `COc1ccc(C(=O)N2CCCc3cc(C4=NNC(=O)SC4C)ccc32)cc1OC` (stereo not shown) [thiadiazinone, 5-[1-(3,4-dimethoxybenzoyl)-1,2,3,4-tetrahydroquinolin-6-yl]-6-methyl-3,6-dihydro-1,3,4-thiadiazin-2-one], the concentration in solution (solubility) was 2 µg/mL (≈ 4.7 µM).
